The source of these data is PubChem BioAssay AID588640 (The Scripps Research Institute Molecular Screening Center, 2011).

Activity calls are given as the source filed them.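 The calls were made as follows: active = p38 protein level shifted at least 30% from the DMSO control, either lower or higher; inactive = the rest.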

The test system of the assay is HCT116 p38 protein level, western blot, 24 h. In words: p38 MAPK abundance shift in treated cells – cell-based, HCT116 colorectal carcinoma, chemiluminescent western blot, counter-screen for KLF5 inhibitor project, late-stage follow-up (AID 588640). The conditions noted are these: at 10 µM; for inhibition: stronger effect = higher value; for fold change: measured here: p38 band fold change vs DMSO. For orientation: In western blotting, separated proteins are transferred to a membrane and probed.

For orientation: inhibition means the change of the read-out against control, counted positive when it falls. Take `CN(C(=O)CNC(=O)/C=C/c1cccc(Cl)c1)C1CCS(=O)(=O)C1` (stereo unspecified): the inhibition was -15.7% (inactive) and the fold change came out at 1.16.

Consider `CN(C(=O)CNC(=O)/C=C/c1cccc(Cl)c1)C1CCS(=O)(=O)CC1`, for which the inhibition is 35.2% and the fold change was found to be 0.647.

Consider `CN(C(=O)COC(=O)/C=C/c1cccc([N+](=O)[O-])c1)C1CCS(=O)(=O)C1` (stereo unspecified), for which the inhibition was 36.3% and the fold change is 0.658.
